Like-named read-outs stand apart in the source and are kept apart here. Bounds are passed on as bounds.

This note sets out measurements from patent publication EP1707568A2, “A pharmaceutical composition for use in the treatment of ovarian cancer in a human afflicted therewith” (SMITHKLINE BEECHAM CORPORATION, priority 1991, dated 1992).

The nature of data set [1]: Hang-bag stability of topotecan diluted in saline or dextrose. The data set is classed as physicochemical. Particulars: read-out: recovery. On the procedure: Topotecan diluted in saline (10 ug/ml or 500 ug/ml) or dextrose (6.7 ug/ml or 330 ug/ml) is stable in a hang-bag for 24 hours with at least 95% recovery.
Data set [2] is described as follows: Stability of reconstituted topotecan solution further diluted in D5W or NS in plastic bags at room temperature. The data set is classed as physicochemical. To be noted: for Percentage of Initial Topotecan Remaining in Solution: 0 hrs; for remaining at 6 h / remaining at 24 h / remaining at 48 h: read-out: Percentage of Initial Topotecan Remaining in Solution. The procedure:
Topotecan is currently undergoing Phase I clinical investigation. The following pharmaceutical information is being supplied to the clinicians: • How supplied - As a vial containing 5 mg (of the base) with 100 mg mannitol. The pH is adjusted to 3.0 with HCl/NaOH. Lyophilized powder is light yellow in color. Intact vials should be stored under refrigeration (2-8 degrees Centigrade). • Solution Preparation -When the 5 mg vial is reconstituted with 2 ml of Sterile Water for Injection, USP, each ml will contain 2.5 mg of topotecan as the base and 50 mg of mannitol, USP. Topotecan must not be diluted or mixed with buffered solutions because of solubility and stability considerations. • Stability - Shelf life surveillance of the intact vials is ongoing. Because the single-use lyophilized dosage form contains no antibacterial preservatives, it is advised that the reconstituted solution be discarded eight hours after initial entry into the vial. Futher dilutions of the reconstituted solution to concentrations of 0.02 mg/ml and 0.1 mg/ml in 5% Dextrose Injection, USP, ("D5W") or 0.9% Sodium Chloride Injection, USP, ("NS") in plastic bags stored at room temperature yielded the following stability results:
Percentage of Initial Topotecan Remaining in Solution

For a further data set, the system named is ovarian cancer. In words: Clinical treatment of a platinum-refractory ovarian cancer patient, tumor size evaluated by CAT scan. The data set is classed as in vivo. To be noted: one human patient, intravenous 1.5 mg/m^2 per day for five consecutive days. The procedure:
One human patient with ovarian cancer, who was refractory to two previous platinum-containing regimens (i.e., cisplatin-cyclophosphamide combination regimen and treatment with single agent carboplatin), received a course of therapy comprising intravenous administration of 1.5 mg of topotecan/m^2 of body surface area per day for five consecutive days. This course of therapy was repeated […] nine more times to date at twenty-one day intervals (from the date of initiation of therapy) for a total of ten treatments. Tumor size regression was evaluated by CAT (computerized axial tomography) scan. […] At least until the tenth treatment, this clinically significant response was sustained, i.e., a greater than fifty percent (50%) tumor size regression was obtained.

For `CC[C@@]1(O)C(=O)OCc2c1cc1n(c2=O)Cc2cc3c(CN(C)C)c(O)ccc3nc2-1` [Topotecan, (S)-9-dimethylaminomethyl-10-hydroxycamptothecin], the remaining at 24 h in data set [1] (dextrose, 6.7 ug/ml) was ≥ 95%; in data set [1] (saline, 10 ug/ml), ≥ 95%; in data set [2] (d5w, 0.02 mg/ml), 102%; in data set [2] (d5w, 0.1 mg/ml) it was 98.2%; in data set [2] (ns, 0.02 mg/ml) it was 96%; in data set [2] (ns, 0.1 mg/ml), 98.3%. Also, the “Percentage of Initial Topotecan Remaining in Solution” value in data set [2] (D5W, 0.02 mg/ml) was found to be 100.00%; in data set [2] (D5W, 0.1 mg/ml) it was 100.00%; in data set [2] (NS, 0.02 mg/ml), 100.00%; in data set [2] (NS, 0.1 mg/ml) it was 100.00%. For the same compound, the remaining at 6 h turned out to be 99.3% in data set [2] (d5w, 0.02 mg/ml); 99.7% in data set [2] (d5w, 0.1 mg/ml); 98.6% in data set [2] (ns, 0.02 mg/ml); 97.7% in data set [2] (ns, 0.1 mg/ml). Further, the remaining at 48 h in data set [2] (d5w, 0.02 mg/ml) came to 102%; in data set [2] (d5w, 0.1 mg/ml) it was 97.9%; in data set [2] (ns, 0.02 mg/ml), 102%; in data set [2] (ns, 0.1 mg/ml), 98.3%. The values for the Tumor size regression result with ovarian cancer (following four courses), in the data set on ovarian cancer (following two courses of therapy) and in the data set with ovarian cancer (sustained at least until the tenth treatment) were “An even greater response was observed”, “Tumor size regression was observed” and > 50%, respectively.
